Values quoted from earlier work, collected in US11304902B2, “Pharmaceutical compositions, preparation and uses thereof” (CURADIGM SAS, priority 2014, dated 2022).
Entries after “also recorded” stand apart in the source; their conditions may differ. Where two headings read alike, the source gives them in different places.

Tests used:
Settings in all cases: human CYP enzyme
[1] = biological target: T1, CYP1A1 (Homo sapiens, UniProt P04798)
T1 sequence (P04798 1-512): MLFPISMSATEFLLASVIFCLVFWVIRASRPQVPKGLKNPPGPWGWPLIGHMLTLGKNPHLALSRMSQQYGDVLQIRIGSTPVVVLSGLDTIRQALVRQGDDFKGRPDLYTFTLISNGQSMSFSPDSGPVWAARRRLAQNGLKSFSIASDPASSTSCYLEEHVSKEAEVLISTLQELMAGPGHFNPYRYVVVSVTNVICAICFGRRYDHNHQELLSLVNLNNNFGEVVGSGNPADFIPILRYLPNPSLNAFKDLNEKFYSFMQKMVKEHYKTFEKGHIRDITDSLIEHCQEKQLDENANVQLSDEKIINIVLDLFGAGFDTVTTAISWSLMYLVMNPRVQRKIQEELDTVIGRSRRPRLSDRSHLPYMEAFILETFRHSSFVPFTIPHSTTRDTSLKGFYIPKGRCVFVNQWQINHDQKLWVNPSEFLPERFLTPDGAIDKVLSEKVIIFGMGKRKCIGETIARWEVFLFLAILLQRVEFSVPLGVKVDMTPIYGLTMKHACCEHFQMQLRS

[2] = biological target: T2, CYP1A2 (Homo sapiens, UniProt P05177)
T2 sequence (P05177 1-516): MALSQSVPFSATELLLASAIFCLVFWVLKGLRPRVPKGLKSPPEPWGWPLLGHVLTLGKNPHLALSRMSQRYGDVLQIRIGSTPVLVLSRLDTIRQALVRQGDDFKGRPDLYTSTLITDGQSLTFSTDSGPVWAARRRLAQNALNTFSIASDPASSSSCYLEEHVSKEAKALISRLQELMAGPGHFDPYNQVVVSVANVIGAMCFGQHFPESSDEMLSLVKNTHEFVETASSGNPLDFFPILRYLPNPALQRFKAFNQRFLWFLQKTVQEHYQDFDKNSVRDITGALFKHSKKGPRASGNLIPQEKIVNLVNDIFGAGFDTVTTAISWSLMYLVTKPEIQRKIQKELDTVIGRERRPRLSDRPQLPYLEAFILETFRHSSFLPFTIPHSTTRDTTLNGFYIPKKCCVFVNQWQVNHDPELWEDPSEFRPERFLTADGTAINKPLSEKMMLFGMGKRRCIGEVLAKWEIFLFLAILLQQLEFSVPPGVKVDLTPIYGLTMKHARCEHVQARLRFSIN

[3] = biological target: CYP3A4 (Homo sapiens, UniProt P08684)
[4] = biological target: T3, CYP2C18 (Homo sapiens, UniProt P33260)
T3 sequence (P33260 26-490): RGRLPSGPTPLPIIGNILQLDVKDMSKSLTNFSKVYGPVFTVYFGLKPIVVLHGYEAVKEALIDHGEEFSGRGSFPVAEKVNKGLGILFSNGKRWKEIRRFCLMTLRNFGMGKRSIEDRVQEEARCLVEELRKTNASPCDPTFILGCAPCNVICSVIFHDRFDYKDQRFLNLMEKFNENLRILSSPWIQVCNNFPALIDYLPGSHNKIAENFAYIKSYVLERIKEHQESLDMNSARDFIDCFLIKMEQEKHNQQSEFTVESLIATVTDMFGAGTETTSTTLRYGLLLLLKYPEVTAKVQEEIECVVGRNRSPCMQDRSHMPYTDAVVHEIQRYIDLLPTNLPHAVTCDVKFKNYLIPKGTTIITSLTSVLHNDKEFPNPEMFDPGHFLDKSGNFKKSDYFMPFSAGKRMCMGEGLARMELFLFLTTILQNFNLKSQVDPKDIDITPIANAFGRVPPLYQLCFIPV

[5] = biological target: T4, CYP2C8 (Homo sapiens, UniProt P10632)
T4 sequence (P10632 1-490): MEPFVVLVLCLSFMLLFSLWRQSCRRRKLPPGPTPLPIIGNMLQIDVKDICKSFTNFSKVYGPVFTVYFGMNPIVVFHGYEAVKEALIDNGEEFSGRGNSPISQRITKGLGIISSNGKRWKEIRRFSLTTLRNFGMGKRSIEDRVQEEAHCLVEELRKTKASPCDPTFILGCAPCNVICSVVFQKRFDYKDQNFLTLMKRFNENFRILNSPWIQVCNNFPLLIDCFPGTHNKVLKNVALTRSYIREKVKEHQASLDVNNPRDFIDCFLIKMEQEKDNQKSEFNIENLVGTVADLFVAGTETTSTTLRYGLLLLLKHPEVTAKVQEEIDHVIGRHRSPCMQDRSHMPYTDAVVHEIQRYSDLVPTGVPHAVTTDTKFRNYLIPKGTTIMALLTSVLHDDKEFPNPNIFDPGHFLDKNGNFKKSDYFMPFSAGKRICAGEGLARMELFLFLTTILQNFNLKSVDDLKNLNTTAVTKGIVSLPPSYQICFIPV

[6] = biological target: T5, CYP11B1 (Homo sapiens, UniProt P15538)
T5 sequence (P15538 25-503): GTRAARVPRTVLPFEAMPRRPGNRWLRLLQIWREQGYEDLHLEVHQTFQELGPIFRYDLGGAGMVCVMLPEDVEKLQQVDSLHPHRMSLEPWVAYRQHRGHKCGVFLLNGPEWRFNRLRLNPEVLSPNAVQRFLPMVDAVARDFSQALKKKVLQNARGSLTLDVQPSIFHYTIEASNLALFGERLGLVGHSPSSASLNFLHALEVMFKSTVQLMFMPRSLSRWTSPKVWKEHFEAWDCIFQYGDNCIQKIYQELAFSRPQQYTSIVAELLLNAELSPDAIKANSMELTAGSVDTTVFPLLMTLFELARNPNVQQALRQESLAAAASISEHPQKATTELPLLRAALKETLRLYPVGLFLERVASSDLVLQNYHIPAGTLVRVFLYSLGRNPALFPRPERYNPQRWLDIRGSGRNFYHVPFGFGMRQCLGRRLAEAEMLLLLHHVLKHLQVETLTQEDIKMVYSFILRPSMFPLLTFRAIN

[7] = biological target: T6, CYP19 (Homo sapiens, UniProt P11511)
T6 sequence (P11511 1-503): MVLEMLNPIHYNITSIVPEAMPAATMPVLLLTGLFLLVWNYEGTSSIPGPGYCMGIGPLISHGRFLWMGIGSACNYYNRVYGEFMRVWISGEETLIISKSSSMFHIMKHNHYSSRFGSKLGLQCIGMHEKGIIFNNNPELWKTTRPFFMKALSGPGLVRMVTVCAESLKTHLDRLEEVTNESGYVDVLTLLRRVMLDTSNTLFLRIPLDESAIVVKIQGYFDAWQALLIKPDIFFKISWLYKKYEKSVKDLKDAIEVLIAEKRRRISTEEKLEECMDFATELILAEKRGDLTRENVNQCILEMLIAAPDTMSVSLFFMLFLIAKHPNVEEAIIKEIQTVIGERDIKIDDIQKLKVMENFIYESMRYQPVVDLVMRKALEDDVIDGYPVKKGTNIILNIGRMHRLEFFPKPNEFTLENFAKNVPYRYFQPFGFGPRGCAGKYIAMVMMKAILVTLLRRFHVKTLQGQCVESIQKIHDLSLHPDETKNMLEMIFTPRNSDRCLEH

[8] = biological target: CYP2C19 (Homo sapiens, UniProt P33261)
[9] = biological target: CYP2C9 (Homo sapiens, UniProt P11712)
[10] = biological target: CYP2D6 (Homo sapiens, UniProt P10635)
[11] = biological target: T7, CYP2B6 (Homo sapiens, UniProt P20813)
T7 sequence (P20813 1-491): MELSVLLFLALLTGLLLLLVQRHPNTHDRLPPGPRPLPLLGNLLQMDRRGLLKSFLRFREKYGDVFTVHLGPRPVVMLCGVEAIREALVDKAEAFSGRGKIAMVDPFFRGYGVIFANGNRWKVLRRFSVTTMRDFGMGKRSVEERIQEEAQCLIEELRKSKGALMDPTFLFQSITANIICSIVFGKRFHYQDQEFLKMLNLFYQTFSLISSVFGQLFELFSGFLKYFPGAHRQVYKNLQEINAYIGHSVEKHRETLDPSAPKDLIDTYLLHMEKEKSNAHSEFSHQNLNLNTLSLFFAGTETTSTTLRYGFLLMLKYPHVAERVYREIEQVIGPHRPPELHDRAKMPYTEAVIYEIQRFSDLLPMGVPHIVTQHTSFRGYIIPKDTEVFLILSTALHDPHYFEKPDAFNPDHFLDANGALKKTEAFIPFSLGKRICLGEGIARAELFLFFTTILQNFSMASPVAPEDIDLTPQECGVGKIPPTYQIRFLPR

[12] = biological target: T8, CYP1B1 (Homo sapiens, UniProt Q16678)
T8 sequence (Q16678 1-543): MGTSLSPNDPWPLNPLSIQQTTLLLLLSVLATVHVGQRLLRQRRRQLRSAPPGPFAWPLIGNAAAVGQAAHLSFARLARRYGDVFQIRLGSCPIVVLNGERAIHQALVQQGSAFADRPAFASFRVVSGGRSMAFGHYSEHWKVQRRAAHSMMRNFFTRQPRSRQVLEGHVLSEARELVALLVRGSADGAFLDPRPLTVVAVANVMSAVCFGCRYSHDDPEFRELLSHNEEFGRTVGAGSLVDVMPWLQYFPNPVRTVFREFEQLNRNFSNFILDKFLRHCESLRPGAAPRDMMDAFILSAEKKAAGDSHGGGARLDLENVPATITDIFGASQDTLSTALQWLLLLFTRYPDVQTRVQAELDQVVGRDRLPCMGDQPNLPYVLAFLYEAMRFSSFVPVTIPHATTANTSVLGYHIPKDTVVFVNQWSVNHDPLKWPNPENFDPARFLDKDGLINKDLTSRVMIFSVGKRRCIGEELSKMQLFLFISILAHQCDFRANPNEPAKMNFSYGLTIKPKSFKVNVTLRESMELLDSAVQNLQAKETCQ

Chain of CYP3A4 (P08684 whole entry): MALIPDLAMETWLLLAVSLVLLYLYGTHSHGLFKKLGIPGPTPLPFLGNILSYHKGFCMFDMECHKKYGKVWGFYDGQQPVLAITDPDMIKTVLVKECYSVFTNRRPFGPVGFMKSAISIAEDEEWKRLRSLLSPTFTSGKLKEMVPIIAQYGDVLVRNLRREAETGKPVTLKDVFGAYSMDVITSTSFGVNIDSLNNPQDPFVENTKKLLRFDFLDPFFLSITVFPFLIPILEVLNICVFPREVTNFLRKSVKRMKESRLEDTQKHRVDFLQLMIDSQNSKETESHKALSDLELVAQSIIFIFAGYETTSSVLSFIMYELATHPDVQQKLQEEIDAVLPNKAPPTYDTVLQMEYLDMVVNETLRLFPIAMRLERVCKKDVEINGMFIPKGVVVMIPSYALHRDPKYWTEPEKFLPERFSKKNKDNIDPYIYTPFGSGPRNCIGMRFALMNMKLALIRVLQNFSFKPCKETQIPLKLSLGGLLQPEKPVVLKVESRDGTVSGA
Chain of CYP2D6 (P10635 whole entry): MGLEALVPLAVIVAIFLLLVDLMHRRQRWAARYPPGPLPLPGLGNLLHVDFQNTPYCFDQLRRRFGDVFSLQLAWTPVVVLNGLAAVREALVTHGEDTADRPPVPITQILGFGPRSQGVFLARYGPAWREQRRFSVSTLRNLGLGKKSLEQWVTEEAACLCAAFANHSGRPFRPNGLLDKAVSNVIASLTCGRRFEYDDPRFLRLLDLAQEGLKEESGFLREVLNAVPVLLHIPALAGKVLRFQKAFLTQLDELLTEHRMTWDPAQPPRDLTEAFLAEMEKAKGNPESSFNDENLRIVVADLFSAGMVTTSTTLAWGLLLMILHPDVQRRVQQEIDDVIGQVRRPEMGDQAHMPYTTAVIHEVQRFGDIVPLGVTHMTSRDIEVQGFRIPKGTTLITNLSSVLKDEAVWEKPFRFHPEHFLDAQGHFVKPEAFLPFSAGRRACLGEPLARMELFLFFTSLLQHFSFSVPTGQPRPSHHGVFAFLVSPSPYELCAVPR
Chain of CYP2C9 (P11712 whole entry): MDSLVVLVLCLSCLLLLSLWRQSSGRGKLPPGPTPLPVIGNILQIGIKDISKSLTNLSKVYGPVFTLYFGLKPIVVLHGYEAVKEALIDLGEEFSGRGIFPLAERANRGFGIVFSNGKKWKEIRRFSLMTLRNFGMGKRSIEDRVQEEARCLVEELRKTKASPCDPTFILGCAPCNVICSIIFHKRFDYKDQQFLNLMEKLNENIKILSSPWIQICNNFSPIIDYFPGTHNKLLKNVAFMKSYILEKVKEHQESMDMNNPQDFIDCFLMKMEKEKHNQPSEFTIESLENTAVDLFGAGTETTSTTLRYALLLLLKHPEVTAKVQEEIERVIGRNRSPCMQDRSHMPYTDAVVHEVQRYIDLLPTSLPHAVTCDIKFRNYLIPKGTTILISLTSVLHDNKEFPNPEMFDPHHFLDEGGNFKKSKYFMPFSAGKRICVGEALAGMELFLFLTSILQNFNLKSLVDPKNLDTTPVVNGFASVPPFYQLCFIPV
Chain of CYP2C19 (P33261 whole entry): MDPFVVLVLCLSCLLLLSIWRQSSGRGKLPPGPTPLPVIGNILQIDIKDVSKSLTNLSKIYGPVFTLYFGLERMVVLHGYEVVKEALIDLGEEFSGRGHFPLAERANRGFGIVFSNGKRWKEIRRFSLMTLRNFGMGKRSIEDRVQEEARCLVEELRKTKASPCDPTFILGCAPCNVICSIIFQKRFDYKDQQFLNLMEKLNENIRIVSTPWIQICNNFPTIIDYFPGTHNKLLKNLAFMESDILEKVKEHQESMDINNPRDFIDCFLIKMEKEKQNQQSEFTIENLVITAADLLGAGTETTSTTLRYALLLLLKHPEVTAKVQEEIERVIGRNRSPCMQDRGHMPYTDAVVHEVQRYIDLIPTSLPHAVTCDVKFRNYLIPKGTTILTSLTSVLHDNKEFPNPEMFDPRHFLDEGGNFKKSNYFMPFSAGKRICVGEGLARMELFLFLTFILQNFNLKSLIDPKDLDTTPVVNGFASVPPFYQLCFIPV

role towards CYP1A1 (substrate / inhibitor / inducer) [1]	role towards CYP3A4 (substrate / inhibitor / inducer) [3]	role towards CYP2C8 (substrate / inhibitor / inducer) [5]	role towards CYP2D6 (substrate / inhibitor / inducer) [10]	role towards CYP2B6 (substrate / inhibitor / inducer) [11]	Compound	further results
Substrate	Substrate	Substrate	–	–	CC(=O)CC(c1ccccc1)c1c(O)c2ccccc2oc1=O (stereo not drawn) [Warfarin, warfarin]	role towards CYP1A2 (substrate / inhibitor / inducer) [2]: Substrate; role towards CYP2C18 (substrate / inhibitor / inducer) [4]: Substrate
Inhibitor	–	–	–	–	O=c1cc(-c2ccc(O)cc2)oc2cc(O)cc(O)c12 [Apigenin, apigenin]	–
Inhibitor	Inhibitor	Inhibitor	–	–	O=c1c(O)c(-c2ccc(O)c(O)c2)oc2cc(O)cc(O)c12 [Quercetin, quercetin]	role towards CYP1A2 (substrate / inhibitor / inducer) [2]: Inhibitor; role towards CYP11B1 (substrate / inhibitor / inducer) [6]: Inhibitor; role towards CYP19 (substrate / inhibitor / inducer) [7]: Inhibitor
–	inhibitor	–	–	–	O=C1C[C@@H](c2ccc(O)cc2)Oc2cc(O)cc(O)c21 [Naringenin, naringenin]	role towards CYP11B1 (substrate / inhibitor / inducer) [6]: Inhibitor
–	–	–	inhibitor	Substrate; also recorded: inhibitor	O=C1Nc2ccc(Cl)cc2[C@@](C#CC2CC2)(C(F)(F)F)O1 [Efavirenz, efavirenz]	role towards CYP2C19 (substrate / inhibitor / inducer) [8]: inhibitor; role towards CYP2C9 (substrate / inhibitor / inducer) [9]: inhibitor
–	Substrate	–	–	–	CC(=O)O[C@@]12CO[C@@H]1C[C@H](O)[C@@]1(C)C(=O)[C@H](O)C3=C(C)[C@@H](OC(=O)[C@H](O)[C@@H](NC(=O)OC(C)(C)C)c4ccccc4)C[C@@](O)([C@@H](OC(=O)c4ccccc4)[C@H]21)C3(C)C [Docetaxel, docetaxel]	role towards CYP1B1 (substrate / inhibitor / inducer) [12]: Substrate; also recorded: inhibitor; role towards CYP3A4 (substrate / inhibitor / inducer) ([3]; listed as docetaxel): substrate
–	–	–	–	inducer	CO[C@H]1/C=C/O[C@@]2(C)Oc3c(C)c(O)c4c(O)c(c(/C=N/N5CCN(C)CC5)c(O)c4c3C2=O)NC(=O)/C(C)=C\C=C\[C@H](C)[C@H](O)[C@@H](C)[C@@H](O)[C@@H](C)[C@H](OC(C)=O)[C@@H]1C [Rifampin, rifampin]	role towards CYP2C18 (substrate / inhibitor / inducer) [4]: inducer
Inhibitor	–	Inhibitor; also recorded: Substrate	Substrate	Inhibitor	CC1=C(/C=C/C(C)=C/C=C/C(C)=C/CO)C(C)(C)CCC1 [Vitamin A retinol, retinol]	–
–	Substrate; also recorded: inhibitor	–	–	–	CC(=O)O[C@H]1C(=O)[C@@]2(C)[C@H]([C@H](OC(=O)c3ccccc3)[C@]3(O)C[C@H](OC(=O)[C@H](O)[C@@H](NC(=O)c4ccccc4)c4ccccc4)C(C)=C1C3(C)C)[C@]1(OC(C)=O)CO[C@@H]1C[C@@H]2O [Paclitaxel, paclitaxel]	–
–	Substrate; also recorded: inhibitor	–	inhibitor	–	COc1cccc2c1C(=O)c1c(O)c3c(c(O)c1C2=O)C[C@@](O)(C(=O)CO)C[C@@H]3O[C@H]1C[C@H](N)[C@H](O)[C@H](C)O1 [Doxorubicin, doxorubicin]	–
